Assay results reported in patent US10799456B2, “Multiple drug lipid nanoparticle composition and related methods for extended drug levels in blood and lymph tissue” (priority 2015, dated 2020).

Tests used:
[1] = Octanol-buffer distribution coefficient (shake-flask); assay type: physicochemical; conditions: room temperature
Description: The octanol-buffer drug distribution coefficient at room temperature was determined by a small-scale, shake-flask method described by Dittert L W, et al. Phase Solubility Technique in Studying the Formation of Complex Salts of Triamterene. Journal of pharmaceutical sciences. […] Briefly, phosphate-buffered saline (PBS) at pH 3, 5, and 7.4 was used as the aqueous phase. […] The mixture was centrifuged at 14,000 rpm (18,078 g) (Beckman Coulter™ Microfuge® 18 centrifuge, Beckman Coulter Inc., Brea, Calif.) to separate octanol and the aqueous phase. The drug concentration in the two phases was determined with high-performance liquid chromatography tandem mass spectrometry (HPLC/MS/MS). The distribution coefficient was calculated as the ratio of the drug concentration in the octanol phase to the drug concentration in the aqueous phase. Triplicate samples were used at each pH.

[2] = Drug incorporation efficiency into lipid-drug nanoparticles (dialysis); assay type: physicochemical; conditions: for Incorporation efficiency (%) / Drug incorporation (% total): preclinical 45 mL scale
Description: J Acquir Immune Defic Syndr. […] Journal of pharmaceutical sciences. […] The AAPS journal. […] Residual solvent was removed overnight by vacuum desiccation. The dried lipid-drug film was then rehydrated with 0.9% NaCl containing 20 mM sodium bicarbonate (pH 7.4). The lipid-drug samples were allowed to hydrate at 60° C. for 2 h. Then samples were sonicated (laboratory scale) or homogenized (preclinical scale) to achieve a homogenous suspension.
The incorporation efficiency was calculated as the ratio of the amount of incorporated drug over the total amount of drug loaded multiplied by 100%.

[3] = Particle size by photon correlation spectroscopy; assay type: physicochemical
Description: The mean particle size of lipid-drug nanoparticles and liposome control was determined by photon correlation spectroscopy (PCS) using a NICOMP™ 380ZLS instrument (NICOMP Particle Sizing Systems, Santa Barbara, Calif.). […] Samples were diluted with the same buffer to an identical final volume to analyze concentration effects. The light scattering data were analyzed based on intensity-weight NICOMP size distribution and expressed as a mean±SD.
Briefly, lipids and protease inhibitors were dissolved in chloroform:ethanol (3:1 v/v) and PMPA was added from a stock solution of 30 mg/ml in aqueous 150 mM NaHCO3. Solvent was removed by rotary evaporation and vacuum desiccation. The dry film was rehydrated to 200 mM lipid in 0.4% NaCl with 20 mM NaHCO3 buffer at 60° C. Particle size was reduced at 60° C. by bath sonication (laboratory scale) or high-pressure homogenization using an Emulsiflex-05 (Avestin, Ottawa, Canada) (clinical scale). LNPs were maintained at 60° C. to anneal for 30 min prior to cooling and stored at 4° C. Particle size was determined by photon correlation spectroscopy using a NICOMP 380 ZLS (Particle Sizing Systems, Santa Barbara, Calif.).

[4] = Plasma time course of ATV/RTV/TFV lipid nanoparticles in primates; assay type: in vivo, Macaca nemestrina; conditions: male, Macaca nemestrina, in vivo, sc
Description: All animal procedures were performed under an approved protocol reviewed by the University of Washington Institutional Animal Care and Use Committee. […] ATV, RTV, and TFV in the plasma were extracted in duplicate and analyzed with a liquid chromatography-mass spectrometry assay with a validated reverse phase HPLC/MS/MS method, similar to that of lopinavir (LPV), RTV, and TFV. […] Antimicrobial agents and chemotherapy. 2014. The linear trapezoidal method was used to calculate the area under the plasma drug concentration-time curve (AUC) for ATV, RTV, and TFV during the time course, which was close to 168 h post-dosing. […] All drugs in buffer and plasma were analyzed using a validated HPLC/MS/MS analytical method, capable of analyzing […], and TFV. The one-step analysis for LPV, RTV, and TFV was published previously. […] Antimicrobial agents and chemotherapy. 2014. Briefly, the HPLC system was outfitted with a Shimadzu 20AD HPLC (Shimadzu Scientific Instruments, Inc., Pleasanton, Calif.). […] Multiple reaction monitoring (MRM) was used to detect transition ions from a specific precursor ion to product ion. The analytes were detected using the following m/z transitions: 705.5/168.2 for ATV, 548.3/392.3 for DRV, 721.3/296.1 for RTV, 288.1/176 for TFV, and 238.1/193.2 for cyheptamide.

[5] = Drug incorporation/encapsulation (association) efficiency of multi-drug LNPs by dialysis; assay type: physicochemical
Description: The anti-HIV LNP formulations contain both unbound drug and drugs bound to lipid nanoparticles. […] Drugs were quantified by LC-MS/MS using acetonitrile precipitation. Encapsulation efficiency (EE) was calculated as follows: […]

[6] = % Drug association to particles by assembly method; assay type: physicochemical
Excerpt: Select one or two drugs hydrophilic and water soluble (Class 2) drugs listed in Table 19 (for example, tenofovir and/or emtricitabine and/or lamivudine). • 3. Select the excipient combination (for example, 9 parts DSPC and 1 part PEG-DSPE). • 4. Prepare a single-phase miscible solvent that enables full solubilization of the chosen water-insoluble Class 1 drugs and water soluble Class 2 drugs plus the excipients from step 3. Examples include CHCl3:Methanol:Water (65:35:4); CHCl3:Ethanol:Water (65:35:4); CHCl3:Propanol:Water (65:35:4); and CHCl3:Hexanol:Water (65:35:4). • 5. The components in Steps 1, 2 and 3 are solubilized with the miscible solvent in step 4. • 6. The drugs (steps 1 and 2) as well as excipients (step 3) and the miscible solvent (step 4) are dried under reduced pressure with assistance of a combination of heat, reduced pressure and/or aerosolization to provide for uniformity and efficiency of drying. • 7. The dehydrated composition is heated above gel-to-liquid phase transition temperature of the excipient mixture (e.g., 50° C.). • 8. A buffered saline solution is prepared and the temperature is equilibrated to the same temperature as dehydrated composition. • 9. The buffered saline solution and dehydrated composition are gradually combined and maintained at the defined (e.g., 50° C.) for 3 hr. • 10. The resulting hydrated multi-drug lipid nanoparticles are size-reduced by sheering or forcing through small orifice or pressurized filter apparatus while maintaining at the defined temperature (in liquid phase of lipidic excipients).

[7] = cited from earlier work
[8] = cited from earlier work; for Hydrophobicity (Log P): Tables 20 and 21; for LogP: Tables 18 and 19
[9] = reported values; cited from earlier work
[10] = Plasma drug exposure of three multi-drug lipid formulations vs free drug in primates; conditions: monkey, in vivo, sc, AUC Lipid Drug 0-168 h, LPV/EFV/TFV combination

| Compound | % Drug Association to Particles, LNPs from mixture of dual solvent method [6] | % Drug Association to Particles, LNPs from single, miscible solvent method [6] | Water solubility @ 25° C. [7] [µg/mL] | Hydrophobicity (Log P) [8] | LogP [8] | % Drug Association to Particles, Liposomes [9] | further results |
| --- | --- | --- | --- | --- | --- | --- | --- |
| COC(=O)N[C@H](C(=O)N[C@@H](Cc1ccccc1)[C@@H](O)CN(Cc1ccc(-c2ccccn2)cc1)NC(=O)[C@@H](NC(=O)OC)C(C)(C)C)C(C)(C)C [Atazanavir (ATV), Atazanavir] | 90-100% | 90-100% | 0.11 | 5.6 | – | – | Log D (measured) ([1]; pH 3, octanol/PBS): 3.40 ± 0.31; Log D (measured) ([1]; pH 5, octanol/PBS): 4.66 ± 0.27; Log D (measured) ([1]; pH 7.4, octanol/PBS): 5.77 ± 0.03; Incorporation efficiency (%) ([2]; LNPs with ATV + RTV + TFV (2:1:3), laboratory 0.2 mL scale): 104.2 ± 3.2%; Incorporation efficiency (%) / Drug incorporation (% total) ([2]; LNPs with ATV + RTV + TFV (2:1:3)): 85.5 ± 8.2%; Incorporation efficiency (%) / Drug incorporation (% total) ([2]; LNPs with ATV + RTV + TFV (2:1:3), listed as atazanavir): 85.5±8.2%; Incorporation efficiency (%) ([2]; LNPs with ATV + RTV, laboratory scale, lipid:drug 8:1): 93.5 ± 6.6%; Incorporation efficiency (%) ([2]; LNPs with ATV, laboratory scale, lipid:drug 8:1): 100.5 ± 8.2%; Incorporation efficiency (%) ([2]; lipid:drug 5:1 mol/mol, DSPC:DSPE-mPEG2000 8:2): 96.5 ± 2.6%; Incorporation efficiency (%) ([2]; lipid:drug 8:1 mol/mol, DSPC:DSPE-mPEG2000 8:2): 96.2 ± 3.8%; Incorporation efficiency (%) ([2]; lipid:drug 20:1 mol/mol, DSPC:DSPE-mPEG2000 8:2): 97.4 ± 1.8%; Particle size (nm) ([3]; lipid:drug 5:1 mol/mol): 68.2 ± 7.1 nm; Particle size (nm) ([3]; lipid:drug 8:1 mol/mol): 56.3 ± 4.1 nm; Particle size (nm) ([3]; lipid:drug 20:1 mol/mol): 34.6 ± 3.1 nm; AUC fraction (% total) 8-168 h [4]: 95.3%; % particle-bound ([5]; Combination 2, lipid:ATZ:RTV:TFV 115:10:5:15, large scale): (91.9 ± 6.8) % |
| C[C@@H]1CCO[C@H]2Cn3cc(C(=O)NCc4ccc(F)cc4F)c(=O)c(O)c3C(=O)N12 [Dolutegravir] | – | – | 95 | – | 2.4 | – | – |
| O=C1Nc2ccc(Cl)cc2[C@@](C#CC2CC2)(C(F)(F)F)O1 [Efavirenz] | 76% | 80-90% | 0.000093 | 4 | 4 | 80% | % particle-bound ([5]; Combination 3, lipid:LPV:EFV:TFV 200:26.6:20:40, large scale): (78.7) %; AUC [10]: 31200 ± 2700 ng·h/mL |
| Nc1nc(=O)n([C@@H]2CS[C@H](CO)O2)cc1F [Emtricitabine] | 3-10% | 78-80% | 112000 | −1.4 | −2.4 | 1-2% | – |
| CC(C)(C)NC(=O)[C@@H]1CN(Cc2cccnc2)CCN1C[C@@H](O)C[C@@H](Cc1ccccc1)C(=O)N[C@H]1c2ccccc2C[C@H]1O [Indinavir] | – | – | – | – | 2.3 | – | – |
| Nc1ccn([C@@H]2CS[C@H](CO)O2)c(=O)n1 [Lamivudine] | 10-30% | 85% | – | – | – | 4-5% | – |
| Cc1nnc(C(=O)NC(C)(C)c2nc(C(=O)NCc3ccc(F)cc3)c(O)c(=O)n2C)o1 [Raltegravir] | 9-25% | 75-89% | 100 | – | −0.39 | – | – |
| Cc1cc(/C=C/C#N)cc(C)c1Nc1ccnc(Nc2ccc(C#N)cc2)n1 [Rilpivirine] | 75-76% | 90-100% | 0.094 | 4.5 | – | 14% | – |
